Test results published in US9045493B2, “Furo[3,2-b]- and thieno[3,2-b]pyridin derivatives” (Merck Patent GmbH, priority 2012, dated 2015).

Key:
[1] = target: T1, IKKε (Homo sapiens, UniProt Q14164); experiment: IKKε kinase assay (384-well Flashplate); type: biochemical; conditions: 10 μM ATP, 2 hours at 30° C.; read-out: IKKε enzyme assay IC50
T1 sequence (Q14164 1-716): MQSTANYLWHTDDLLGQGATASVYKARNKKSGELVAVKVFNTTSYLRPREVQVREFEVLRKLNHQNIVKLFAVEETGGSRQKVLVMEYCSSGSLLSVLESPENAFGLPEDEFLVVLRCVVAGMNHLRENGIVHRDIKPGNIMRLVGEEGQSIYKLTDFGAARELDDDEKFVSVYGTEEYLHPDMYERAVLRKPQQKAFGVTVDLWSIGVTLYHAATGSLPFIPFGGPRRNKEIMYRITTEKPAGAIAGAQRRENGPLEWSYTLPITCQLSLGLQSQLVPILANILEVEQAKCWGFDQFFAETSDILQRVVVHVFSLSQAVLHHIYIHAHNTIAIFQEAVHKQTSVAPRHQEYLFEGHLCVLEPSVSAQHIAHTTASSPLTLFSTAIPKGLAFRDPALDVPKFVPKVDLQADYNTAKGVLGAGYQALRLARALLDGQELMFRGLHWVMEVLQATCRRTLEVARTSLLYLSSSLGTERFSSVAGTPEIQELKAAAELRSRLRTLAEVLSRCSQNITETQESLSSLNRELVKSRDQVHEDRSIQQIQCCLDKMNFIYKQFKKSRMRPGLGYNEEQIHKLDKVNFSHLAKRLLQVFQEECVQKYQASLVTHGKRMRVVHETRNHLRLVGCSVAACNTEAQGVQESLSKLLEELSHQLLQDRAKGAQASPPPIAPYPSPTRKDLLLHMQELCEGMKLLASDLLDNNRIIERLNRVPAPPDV
Method: The kinase assay is performed either as 384-well Flashplate assay (for e.g. Topcount measurement).
1 nM IKKε, 800 nM biotinylated IκBα(19-42) peptide (Biotin-C6-C6-[…]) and 10 μM ATP (spiked with 0.3 μCi ^33P-ATP/well) are incubated in a total volume of 50 μl (10 mM MOPS, 10 mM Mg-acetat, 0.1 mM EGTA, 1 mM Dithiothreitol, 0.02% Brij35, 0.1% BSA, 0.1% BioStab, pH 7.5) with or without test compound for 2 hours at 30° C. The reaction is stopped with 25 μl 200 mM EDTA. After 30 Min at room temperature the liquid is removed and each well washed thrice with 100 μl 0.9% sodium chloride solution. […] Radioactivity is measured with Topcount (PerkinElmer). Results (e.g. IC50-values) are calculated with program tools provided by the IT-department (e.g. AssayExplorer, Symyx).

[2] = target: T2, TANK binding kinase (TBK1) (Homo sapiens, UniProt Q9UHD2); experiment: TBK1 enzyme assay (384-well Flashplate kinase assay); type: biochemical; conditions: 10 μM ATP, 120 Min at 30° C.
T2 sequence (Q9UHD2 1-729): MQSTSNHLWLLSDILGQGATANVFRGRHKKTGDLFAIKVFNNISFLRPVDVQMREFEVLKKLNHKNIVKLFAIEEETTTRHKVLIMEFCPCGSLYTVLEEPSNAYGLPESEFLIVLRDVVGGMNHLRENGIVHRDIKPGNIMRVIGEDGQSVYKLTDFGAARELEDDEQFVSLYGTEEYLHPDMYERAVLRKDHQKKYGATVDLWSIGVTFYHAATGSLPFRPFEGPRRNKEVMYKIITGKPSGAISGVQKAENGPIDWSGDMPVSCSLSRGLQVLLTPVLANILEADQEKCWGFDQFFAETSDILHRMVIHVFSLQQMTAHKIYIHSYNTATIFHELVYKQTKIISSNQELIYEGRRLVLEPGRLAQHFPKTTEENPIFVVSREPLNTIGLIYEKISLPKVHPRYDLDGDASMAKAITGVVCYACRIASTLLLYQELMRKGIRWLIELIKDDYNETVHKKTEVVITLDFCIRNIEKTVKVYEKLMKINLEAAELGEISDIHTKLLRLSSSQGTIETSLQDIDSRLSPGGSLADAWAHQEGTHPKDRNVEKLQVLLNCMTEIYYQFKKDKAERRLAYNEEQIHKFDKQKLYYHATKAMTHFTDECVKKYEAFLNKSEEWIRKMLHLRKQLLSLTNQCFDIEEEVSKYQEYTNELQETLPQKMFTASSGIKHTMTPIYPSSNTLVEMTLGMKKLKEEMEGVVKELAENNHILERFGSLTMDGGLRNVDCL
Method: The kinase assay is performed as 384-well Flashplate assay (for e.g. Topcount measurement.
0.6 nM TANK binding kinase (TBK1), 800 nM biotinylated MELK-derived peptide (Biotin-Ah-Ah-[…]) and 10 μM ATP (spiked with 0.25 μCi ^33P-ATP/well) are incubated in a total volume of 50 μl (10 mM MOPS, 10 mM Mg-acetat, 0.1 mM EGTA, 1 mM DTT, 0.02% Brij35, 0.1% BSA, pH 7.5) with or without test compound for 120 Min at 30° C. The reaction is stopped with 25 μl 200 mM EDTA. After 30 Min at room temperature the liquid is removed and each well washed thrice with 100 μl 0.9% sodium chloride solution. Nonspecific reaction is determined in presence of 100 nM Staurosporine. Radioactivity is measured in a Topcount (PerkinElmer). Results (e.g. IC50-values) are calculated with program tools provided by the IT-department (e.g. AssayExplorer, Symyx).

IC50 [1] [nM] | IC50 [2] [nM] | SMILES
< 300 | < 300 | CN1CCN(c2cccc(-c3cc4nccc(-c5ccc(OC6CCOCC6)c(C#N)c5)c4o3)c2)CC1 [Compound A9, 5-{2-[3-(4-methyl-piperazin-1-yl)-phenyl]-furo[3,2-b]pyridin-7-yl}-2-(tetrahydro-pyran-4-yloxy)-benzonitrile]
< 300 | < 300 | N#Cc1cc(-c2ccnc3cc(-c4cnn(CCO)c4)sc23)ccc1OC1CCOCC1 [Compound A108]
< 300 | < 300 | CC(=O)NCCNC(=O)c1ccc(-c2cc3nccc(-c4ccc(OC5CCOCC5)c(C#N)c4)c3o2)cc1 [Compound A80]
3000 to 50000 | 3000 to 50000 | N#Cc1cc(-c2ccnc3cc(-c4ccc(N5CCOCC5)cc4)oc23)ccc1OC1CCOCC1 [Compound A1, 5-[2-(4-Morpholin-4-yl-phenyl)-furo[3,2-b]pyridin-7-yl]-2-(tetrahydro-pyran-4-yloxy)-benzonitrile]
< 300 | < 300 | COc1cc(-c2cc3nccc(-c4ccc(OC5CCOCC5)c(C#N)c4)c3o2)ccc1C(=O)N1CCC(O)CC1 [Compound A101]
< 300 | 300 to 3000 | COc1cncc(-c2cc3nccc(-c4ccc(OC5CCOCC5)c(C#N)c4)c3o2)c1 [Compound A66]
< 300 | < 300 | COc1cc(-c2cc3nccc(-c4ccc(OC5CCOCC5)c(C#N)c4)c3o2)ccc1C(=O)NCCN1CCNC1=O [Compound A87]
< 300 | < 300 | COc1cc(-c2cc3nccc(-c4ccc(OC5CCOCC5)c(C#N)c4)c3o2)ccc1C(=O)N1CCNC(=O)CC1 [Compound A91]
< 300 | < 300 | CN1CCN(C(=O)c2ccc(-c3cc4nccc(-c5ccc(OC6CCOCC6)c(C#N)c5)c4o3)cc2)CC1 [Compound A17, 5-{2-[4-(4-Methyl-piperazine-1-carbonyl)-phenyl]-furo[3,2-b]pyridin-7-yl}-2-(tetrahydro-pyran-4-yloxy)-benzonitrile]
< 300 | < 300 | CN(CCO)C(=O)c1ccc(-c2cc3nccc(-c4ccc(OC5CCOCC5)c(C#N)c4)c3o2)c(F)c1 [Compound A107]
< 300 | < 300 | COc1cc(-c2cc3nccc(-c4ccc(OC5CCOCC5)c(C#N)c4)c3o2)ccc1C(=O)N1CCNCC1 [Compound A35, 5-{2-[3-methoxy-4-(piperazin-1-carbonyl)-phenyl]-furo[3,2-b]pyridin-7-yl}-2-(tetrahydro-pyran-4-yloxy)-benzonitrile]
< 300 | < 300 | COc1cc(-c2cc3nccc(-c4ccc(OC5CCOCC5)c(C#N)c4)c3o2)ccc1C(=O)NC1CCN(C)CC1 [Compound A99]
300 to 3000 | 300 to 3000 | CCNC(=O)c1ccc(-c2cc3nccc(-c4ccc(OC5CCOCC5)c(C#N)c4)c3o2)cc1 [Compound A20, 4-{7-[3-cyano-4-(tetrahydro-pyran-4-yloxy)-phenyl]-furo[3,2-b]pyridin-2-yl}-N-ethyl-benzamide]
< 300 | < 300 | CCN(CCN(C)C)C(=O)c1ccc(-c2cc3nccc(-c4ccc(OC5CCOCC5)c(C#N)c4)c3s2)cc1OC [Compound A51]
< 300 | < 300 | CN(CCO)C(=O)c1ccc(-c2cc3nccc(-c4ccc(OCC5CC5)c(C#N)c4)c3o2)cc1 [Compound A41]
< 300 | < 300 | COc1cc(-c2cc3nccc(-c4ccc(OC5CCOCC5)c(C#N)c4)c3o2)ccc1C(=O)N1CCOCC1 [Compound A104]
< 300 | < 300 | CN1CCN(C(=O)c2ccc(-c3cc4nccc(-c5ccc(OCC6CC6)c(C#N)c5)c4o3)cc2)CC1 [Compound A39]
< 300 | < 300 | N#Cc1cc(-c2ccnc3cc(-c4ccc(C(=O)N5CCNCC5)cc4)sc23)ccc1OC1CCOCC1 [Compound A53]
< 300 | < 300 | COc1cc(C(=O)N2CCC(O)CC2)ccc1-c1cc2nccc(-c3ccc(OC4CCOCC4)c(C#N)c3)c2o1 [Compound A116]
< 300 | < 300 | CN(CCO)C(=O)c1ccc(-c2cc3nccc(-c4ccc(OC5CCOCC5)c(C#N)c4)c3s2)cc1 [Compound A44]
300 to 3000 | 300 to 3000 | N#Cc1cc(-c2ccnc3cc(-c4cccc5[nH]cnc45)oc23)ccc1OC1CCOCC1 [Compound A13, 5-[2-(1H-benzoimidazol-4-yl)-furo[3,2-b]pyridin-7-yl]-2-(tetrahydro-pyran-4-yloxy)-benzonitrile]
< 300 | < 300 | N#Cc1cc(-c2ccnc3cc(-c4cccc(N5CCOCC5)c4)oc23)ccc1OC1CCOCC1 [Compound A2, 5-[2-(3-Morpholin-4-yl-phenyl)-furo[3,2-b]pyridin-7-yl]-2-(tetrahydro-pyran-4-yloxy)-benzonitrile]
< 300 | < 300 | N#Cc1cc(-c2ccnc3cc(-c4ccc(C(=O)N5CCNCC5)cc4)oc23)ccc1OCC1CC1 [Compound A40]
< 300 | < 300 | CCN(C)C(=O)c1ccc(-c2cc3nccc(-c4ccc(OC5CCOCC5)c(C#N)c4)c3o2)cc1 [Compound A24, 4-{7-[3-cyano-4-(tetrahydro-pyran-4-yloxy)-phenyl]-furo[3,2-b]pyridin-2-yl}-N-ethyl-N-methyl-benzamide]
< 300 | < 300 | COc1cc(-c2cc3nccc(-c4ccc(OC5CCOCC5)c(C#N)c4)c3o2)ccc1C(=O)NCCN(C)C [Compound A32, 4-{7-[3-cyano-4-(tetrahydro-pyran-4-yloxy)-phenyl]-furo[3,2-b]pyridin-2-yl}-N-(2-dimethylamino-ethyl)-2-methoxy-benzamide]
< 300 | < 300 | N#Cc1cc(-c2ccnc3cc(-c4ccc(C(=O)NCCO)cc4)oc23)ccc1OC1CCOCC1 [Compound A33, 4-{7-[3-cyano-4-(tetrahydro-pyran-4-yloxy)-phenyl]-furo[3,2-b]pyridin-2-yl}-N-(2-hydroxy-ethyl)-benzamide]
300 to 3000 | 300 to 3000 | N#Cc1cc(-c2ccnc3cc(-c4ccc(C(=O)NCCC(F)(F)F)cc4)oc23)ccc1OC1CCOCC1 [Compound A85]
< 300 | < 300 | N#Cc1cc(-c2ccnc3cc(-c4ccc(C(=O)N5CCNCC5)cc4)oc23)ccc1N1CCCC1 [Compound A72]

SMILES | IC50 [1] [nM] | IC50 [2] [nM]
CC(C)(C)OCCNC(=O)c1ccc(-c2cc3nccc(-c4ccc(OC5CCOCC5)c(C#N)c4)c3o2)cc1 [Compound A21, N-(2-tert-butoxy-ethyl)-4-{7-[3-cyano-4-(tetrahydro-pyran-4-yloxy)-phenyl]-furo[3,2-b]pyridin-2-yl}-benzamide] | 300 to 3000 | 300 to 3000
